Molecules are shown by their SMILES.

Chain of GCN2 (Q9P2K8 whole entry): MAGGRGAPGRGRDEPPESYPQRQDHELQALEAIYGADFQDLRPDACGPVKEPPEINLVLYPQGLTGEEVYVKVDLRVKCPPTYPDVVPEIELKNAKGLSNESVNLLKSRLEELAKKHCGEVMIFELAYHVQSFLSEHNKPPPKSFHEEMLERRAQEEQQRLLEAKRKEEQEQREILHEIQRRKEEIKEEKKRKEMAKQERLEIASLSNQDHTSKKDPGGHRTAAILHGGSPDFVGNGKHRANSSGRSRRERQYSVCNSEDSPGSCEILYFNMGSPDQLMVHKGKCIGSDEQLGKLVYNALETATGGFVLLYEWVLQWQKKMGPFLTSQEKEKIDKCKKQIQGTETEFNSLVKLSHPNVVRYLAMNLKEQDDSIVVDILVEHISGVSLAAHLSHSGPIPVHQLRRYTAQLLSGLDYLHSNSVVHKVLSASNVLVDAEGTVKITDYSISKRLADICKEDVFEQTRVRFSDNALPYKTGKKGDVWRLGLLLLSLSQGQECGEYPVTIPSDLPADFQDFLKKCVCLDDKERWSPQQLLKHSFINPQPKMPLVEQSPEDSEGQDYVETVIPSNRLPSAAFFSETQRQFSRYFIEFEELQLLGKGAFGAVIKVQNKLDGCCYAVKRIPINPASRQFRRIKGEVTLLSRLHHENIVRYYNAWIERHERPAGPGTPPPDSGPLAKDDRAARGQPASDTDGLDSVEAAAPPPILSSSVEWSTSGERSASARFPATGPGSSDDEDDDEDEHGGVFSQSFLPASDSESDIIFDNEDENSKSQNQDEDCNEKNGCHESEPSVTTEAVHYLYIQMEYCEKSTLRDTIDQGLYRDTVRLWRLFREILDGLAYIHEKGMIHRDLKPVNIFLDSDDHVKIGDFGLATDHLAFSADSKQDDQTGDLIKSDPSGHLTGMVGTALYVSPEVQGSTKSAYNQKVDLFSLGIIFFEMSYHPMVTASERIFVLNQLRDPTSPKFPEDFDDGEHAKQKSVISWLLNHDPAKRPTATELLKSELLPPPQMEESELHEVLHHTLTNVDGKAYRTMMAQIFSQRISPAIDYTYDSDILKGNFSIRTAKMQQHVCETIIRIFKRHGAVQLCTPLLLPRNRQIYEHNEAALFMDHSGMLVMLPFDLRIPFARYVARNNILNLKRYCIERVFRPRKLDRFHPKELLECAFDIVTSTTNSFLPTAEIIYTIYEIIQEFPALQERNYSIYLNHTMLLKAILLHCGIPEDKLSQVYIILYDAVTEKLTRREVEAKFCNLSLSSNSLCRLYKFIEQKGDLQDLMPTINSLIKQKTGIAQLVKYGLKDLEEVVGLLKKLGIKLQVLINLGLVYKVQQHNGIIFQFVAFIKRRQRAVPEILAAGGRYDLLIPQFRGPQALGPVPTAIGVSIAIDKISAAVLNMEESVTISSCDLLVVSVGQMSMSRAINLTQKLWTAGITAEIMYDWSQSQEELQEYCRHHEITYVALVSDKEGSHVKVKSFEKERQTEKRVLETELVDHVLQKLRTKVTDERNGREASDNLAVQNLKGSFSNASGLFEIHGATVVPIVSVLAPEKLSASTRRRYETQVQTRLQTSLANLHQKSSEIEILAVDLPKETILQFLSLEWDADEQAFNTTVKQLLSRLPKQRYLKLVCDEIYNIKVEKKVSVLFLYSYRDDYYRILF

One assay concerns the target GCN2 (Homo sapiens (Human), UniProt Q9P2K8). The assay is described as follows: TR-FRET biochemical assay for inhibition of GCN2.
Conditions: not given
In general terms: In TR-FRET formats the signal depends on donor and acceptor labels being close together.
As for `CNC(=O)c1ncn2cc(-c3c(F)ccc(NS(=O)(=O)c4cc(Cl)cnc4OC)c3C)ccc12` [Compound 122, 6-[3-(5-chloro-2-methoxypyridine-3-sulfonamido)-6-fluoro-2-methylphenyl]-N-methylimidazo[1,5-a]pyridine-1-carboxamide], the IC50 (in general, the point on the concentration scale where inhibition reaches its midpoint) lay within 50 to 500 nM. The same measure, in the same setting: the figure for `COc1ncc(F)cc1S(=O)(=O)Nc1ccc(F)c(-c2cn3cnc(-c4nnc(C)[nH]4)c3cn2)c1F` [Compound 127, N-[2,4-difluoro-3-[1-(5-methyl-4H-1,2,4-triazol-3-yl)imidazo[1,5-a]pyrazin-6-yl]phenyl]-5-fluoro-2-methoxypyridine-3-sulfonamide] is 50 to 500 nM; for `COc1ncc(C#N)cc1S(=O)(=O)Nc1ccc(F)c(-c2cn3cnc(-c4nnc(C)[nH]4)c3cn2)c1F` [Compound 128, 5-cyano-N-[2,4-difluoro-3-[1-(5-methyl-4H-1,2,4-triazol-3-yl)imidazo[1,5-a]pyrazin-6-yl]phenyl]-2-methoxypyridine-3-sulfonamide] it is 50 to 500 nM; for `COc1ncc(C#N)cc1S(=O)(=O)Nc1ccc(F)c([C@@H]2CCc3c(-c4nnc(C)[nH]4)ncn3C2)c1F` [Compound 135-1, 5-cyano-N-[2,4-difluoro-3-[(6S)-1-(5-methyl-4H-1,2,4-triazol-3-yl)-5H,6H,7H,8H-imidazo[1,5-a]pyridin-6-yl]phenyl]-2-methoxypyridine-3-sulfonamide] it is 50 to 500 nM.

With `COc1ncc(C#N)cc1S(=O)(=O)Nc1ccc(F)c([C@H]2CCc3c(-c4nnc(C)[nH]4)ncn3C2)c1F` [Compound 135-2, 5-cyano-N-[2,4-difluoro-3-[(6R)-1-(5-methyl-4H-1,2,4-triazol-3-yl)-5H,6H,7H,8H-imidazo[1,5-a]pyridin-6-yl]phenyl]-2-methoxypyridine-3-sulfonamide], the IC50 is 50 to 500 nM.

Staying with this assay, now noted: GCN2 2 nM, 100 nM GFP-eIF2a, 150 μM ATP, TR-FRET.
Compound `COc1ncc(C#N)cc1S(=O)(=O)Nc1ccc(F)c(-c2ccc3c(-c4nc5c([nH]4)CCCC5)ncn3c2)c1F` [Compound 123, 5-cyano-N-[2,4-difluoro-3-[1-(4,5,6,7-tetrahydro-1H-1,3-benzodiazol-2-yl)imidazo[1,5-a]pyridin-6-yl]phenyl]-2-methoxypyridine-3-sulfonamide] displayed an IC50 of less than 50 nM.

In turn, `COc1ncc(Cl)cc1S(=O)(=O)Nc1ccc(F)c(-c2cn3cnc(-c4nnc(C)[nH]4)c3cn2)c1F` [Compound 124, 5-chloro-N-[2,4-difluoro-3-[1-(5-methyl-4H-1,2,4-triazol-3-yl)imidazo[1,5-a]pyrazin-6-yl]phenyl]-2-methoxypyridine-3-sulfonamide] registered an IC50 of less than 50 nM. `Cc1ncc(F)cc1S(=O)(=O)Nc1ccc(F)c(-c2ccc3c(-c4ccno4)ncn3c2)c1F` [Compound 125, N-[2,4-difluoro-3-[1-(1,2-oxazol-5-yl)imidazo[1,5-a]pyridin-6-yl]phenyl]-5-fluoro-2-methylpyridine-3-sulfonamide] had an IC50 of less than 50 nM. In the case of `COc1ncc(C#N)cc1S(=O)(=O)Nc1ccc(F)c(-c2ccc3c(-c4nc(C)c(C)[nH]4)ncn3c2)c1F` [Compound 126, 5-cyano-N-[3-[1-(4,5-dimethyl-1H-imidazol-2-yl)imidazo[1,5-a]pyridin-6-yl]-2,4-difluorophenyl]-2-methoxypyridine-3-sulfonamide], the IC50 was less than 50 nM. The same measure, in the same setting: the figure for `Cc1nnc(-c2ncn3cc(-c4c(F)ccc(NS(=O)(=O)c5cc(F)cnc5C)c4F)ncc23)[nH]1` [Compound 129, N-[2,4-difluoro-3-[1-(5-methyl-4H-1,2,4-triazol-3-yl)imidazo[1,5-a]pyrazin-6-yl]phenyl]-5-fluoro-2-methylpyridine-3-sulfonamide] is less than 50 nM. In turn, `COc1ncc(Cl)cc1S(=O)(=O)Nc1ccc(F)c([C@@H]2CCc3c(-c4nnc(C)[nH]4)ncn3C2)c1F` [Compound 130-1, 5-chloro-N-[2,4-difluoro-3-[(6S)-1-(5-methyl-4H-1,2,4-triazol-3-yl)-5H,6H,7H,8H-imidazo[1,5-a]pyridin-6-yl]phenyl]-2-methoxypyridine-3-sulfonamide] gave an IC50 of less than 50 nM.

On to `COc1ncc(Cl)cc1S(=O)(=O)Nc1ccc(F)c([C@H]2CCc3c(-c4nnc(C)[nH]4)ncn3C2)c1F` [Compound 130-2, 5-chloro-N-[2,4-difluoro-3-[(6R)-1-(5-methyl-4H-1,2,4-triazol-3-yl)-5H,6H,7H,8H-imidazo[1,5-a]pyridin-6-yl]phenyl]-2-methoxypyridine-3-sulfonamide], for which the IC50 is less than 50 nM. As for `COc1ncc(F)cc1S(=O)(=O)Nc1ccc(F)c([C@@H]2CCc3c(-c4nnc(C)[nH]4)ncn3C2)c1F` [Compound 131-1, N-[2,4-difluoro-3-[(6S)-1-(5-methyl-4H-1,2,4-triazol-3-yl)-5H,6H,7H,8H-imidazo[1,5-a]pyridin-6-yl]phenyl]-5-fluoro-2-methoxypyridine-3-sulfonamide], the IC50 is less than 50 nM. On the same count and under the same terms, to `COc1ncc(F)cc1S(=O)(=O)Nc1ccc(F)c([C@H]2CCc3c(-c4nnc(C)[nH]4)ncn3C2)c1F` [Compound 131-2, N-[2,4-difluoro-3-[(6R)-1-(5-methyl-4H-1,2,4-triazol-3-yl)-5H,6H,7H,8H-imidazo[1,5-a]pyridin-6-yl]phenyl]-5-fluoro-2-methoxypyridine-3-sulfonamide] belongs less than 50 nM; to `CNC(=O)c1ncn2cc(-c3c(F)ccc(NS(=O)(=O)c4cc(Cl)c[nH]c4=O)c3F)ncc12` [Compound 132, 6-(3-((5-chloro-2-oxo-1,2-dihydropyridine)-3-sulfonamido)-2,6-difluorophenyl)-N-methylimidazo[1,5-a]pyrazine-1-carboxamide], greater than 1000 nM; to `Cc1nnc(-c2ncn3cc(-c4c(F)ccc(NS(=O)(=O)c5cc(Cl)cnc5C)c4F)ncc23)[nH]1` [Compound 133, 5-chloro-N-[2,4-difluoro-3-[1-(5-methyl-4H-1,2,4-triazol-3-yl)imidazo[1,5-a]pyrazin-6-yl]phenyl]-2-methylpyridine-3-sulfonamide], less than 50 nM. The compound `Cc1nnc(-c2ncn3c2CC[C@@H](c2c(F)ccc(NS(=O)(=O)c4cc(F)cnc4C)c2F)C3)[nH]1` [Compound 134-1, N-[2,4-difluoro-3-[(6S)-1-(5-methyl-4H-1,2,4-triazol-3-yl)-5H,6H,7H,8H-imidazo[1,5-a]pyridin-6-yl]phenyl]-5-fluoro-2-methylpyridine-3-sulfonamide] showed an IC50 of less than 50 nM. As for `Cc1nnc(-c2ncn3c2CC[C@H](c2c(F)ccc(NS(=O)(=O)c4cc(F)cnc4C)c2F)C3)[nH]1` [Compound 134-2, N-[2,4-difluoro-3-[(6R)-1-(5-methyl-4H-1,2,4-triazol-3-yl)-5H,6H,7H,8H-imidazo[1,5-a]pyridin-6-yl]phenyl]-5-fluoro-2-methylpyridine-3-sulfonamide], the IC50 is less than 50 nM. `Cc1nnc(-c2ncn3c2CC[C@@H](c2c(F)ccc(NS(=O)(=O)c4cc(Cl)cnc4C)c2F)C3)[nH]1` [Compound 136-1, 5-chloro-N-[2,4-difluoro-3-[(6S)-1-(5-methyl-4H-1,2,4-triazol-3-yl)-5H,6H,7H,8H-imidazo[1,5-a]pyridin-6-yl]phenyl]-2-methylpyridine-3-sulfonamide] showed an IC50 of less than 50 nM. `Cc1nnc(-c2ncn3c2CC[C@H](c2c(F)ccc(NS(=O)(=O)c4cc(Cl)cnc4C)c2F)C3)[nH]1` [Compound 136-2, 5-chloro-N-[2,4-difluoro-3-[(6R)-1-(5-methyl-4H-1,2,4-triazol-3-yl)-5H,6H,7H,8H-imidazo[1,5-a]pyridin-6-yl]phenyl]-2-methylpyridine-3-sulfonamide] yielded an IC50 of less than 50 nM.

`CNC(=O)c1ncn2cc(-c3c(Cl)ccc(NS(=O)(=O)c4cc(Cl)cnc4OC)c3F)ccc12` [Compound 137, 6-[6-chloro-3-(5-chloro-2-methoxypyridine-3-sulfonamido)-2-fluorophenyl]-N-methylimidazo[1,5-a]pyridine-1-carboxamide] showed an IC50 of less than 50 nM.

`CNC(=O)c1ncn2nc(-c3c(Cl)ccc(NS(=O)(=O)c4cc(Cl)cnc4C)c3F)ccc12` [Compound 138, 2-[6-chloro-3-(5-chloro-2-methylpyridine-3-sulfonamido)-2-fluorophenyl]-N-methylimidazo[1,5-b]pyridazine-5-carboxamide] registered an IC50 of less than 50 nM.

In the case of `CNC(=O)c1ncn2nc(-c3c(F)ccc(NS(=O)(=O)c4cc(Cl)cnc4C)c3Cl)ccc12` [Compound 139, 2-[2-chloro-3-(5-chloro-2-methylpyridine-3-sulfonamido)-6-fluorophenyl]-N-methylimidazo[1,5-b]pyridazine-5-carboxamide], the IC50 was less than 50 nM. Regarding `CNC(=O)c1ncn2cc(-c3c(Cl)ccc(NS(=O)(=O)c4cc(Cl)cnc4OC)c3F)ncc12` [Compound 141, 6-(6-chloro-3-((5-chloro-2-methoxypyridine)-3-sulfonamido)-2-fluorophenyl)-N-methylimidazo[1,5-a]pyrazine-1-carboxamide], the IC50 is less than 50 nM.

In turn, `COc1ncc(F)cc1S(=O)(=O)Nc1ccc(Cl)c(-c2cn3cnc(-c4ncc[nH]4)c3cn2)c1F` [Compound 142, N-[4-chloro-2-fluoro-3-[1-(1H-imidazol-2-yl)imidazo[1,5-a]pyrazin-6-yl]phenyl]-5-fluoro-2-methoxypyridine-3-sulfonamide] returned an IC50 of less than 50 nM.

In turn, `COc1ncc(Cl)cc1S(=O)(=O)Nc1ccc(F)c(-c2ccc3c(-c4nc(C)c(C)[nH]4)ncn3c2)c1F` [Compound 143, 5-chloro-N-(3-(1-(4,5-dimethyl-1H-imidazol-2-yl)imidazo[1,5-a]pyridin-6-yl)-2,4-difluorophenyl)-2-methoxypyridine-3-sulfonamide] showed an IC50 of less than 50 nM. In turn, `COc1ncc(F)cc1S(=O)(=O)Nc1ccc(F)c(-c2ccc3c(-c4nc(C)c(C)[nH]4)ncn3c2)c1F` [Compound 144, N-(3-(1-(4,5-dimethyl-1H-imidazol-2-yl)imidazo[1,5-a]pyridin-6-yl)-2,4-difluorophenyl)-5-fluoro-2-methoxypyridine-3-sulfonamide] had an IC50 of less than 50 nM.

On to `Cc1ncc(F)cc1S(=O)(=O)Nc1ccc(F)c(-c2ccc3c(-c4nc(C)c(C)[nH]4)ncn3c2)c1F` [Compound 145, N-(3-(1-(4,5-dimethyl-1H-imidazol-2-yl)imidazo[1,5-a]pyridin-6-yl)-2,4-difluorophenyl)-5-fluoro-2-methylpyridine-3-sulfonamide], for which the IC50 was less than 50 nM.

For the origin of these results see patent US20240083897A1, “GCN2 MODULATING COMPOUNDS AND USES THEREOF” (HiberCell, Inc., priority 2021, published 2024).
